Experiments:
[1] = target: T1, human recombinant DAT (Homo sapiens, UniProt Q01959); test: Neurotransmitter uptake inhibition, [3H]-DA, hDAT cells; type: cell-based; conditions: mean, 3 to 9 experiments
T1 construct: expressed in transfected cells; host or cells: CHO-K1
Text: (§1) The in vitro pharmacology of ampreloxetine at human recombinant and rat native monoamine transporters was characterized as described in Smith et al., Inter. J. Neuropsychopharmcol. (2015) 1-11; and Tsuruda et al., J. Pharmacol. Toxicol. Meth. (2010) 61:192-204. See also, e.g., U.S. Pat. Nos. 8,304,432 B2 and 8,304,433 B2. Radioligands were sourced commercially (Perkin Elmer LifeSciences or GE Healthcare Life Sciences).
(§2) Briefly, membranes prepared from HEK293 (Human Embryonic Kidney 293) or CHO-K1 (Chinese Hamster Ovary-K1) cells stably transfected with human recombinant SERT (HEK293-hSERT), NET (HEK293-hNET), or DAT (CHO-K1-hDAT) were incubated for 1 hr at 22° C. in the absence, or presence, of 4-[2-(2,4,6-trifluorophenoxymethyl)phenyl]piperidine and [^3H]-citalopram (1.0 nM) for SERT, [^3H]-nisoxetine (2.0 nM) for NET, and [^3H]-WIN35428 (3.0 nM) for DAT in 50 mM Tris-HCl, 120 mM NaCl, 5 mM KCl, 0.025% BSA, 100 μM ascorbic acid, pH 7.4. Rat cortical membrane preparations were incubated with [^3H]-citalopram (2.0 nM) for SERT or [^3H]-nisoxetine (4.0 nM) for NET for 1 hr at 22° C. […] Binding and uptake assays were terminated by rapid filtration and radioactivity determined by liquid scintillation spectroscopy. […] Selectivity for NET (rounded to one significant figure) was determined as follows: […]

[2] = tested on: rat native NET; test: [3H]-NE uptake inhibition, rat cortical synaptosomes; type: biochemical; conditions: [3H]-NE vs [3H]-5-HT uptake
Text: as §1, §2

[3] = target: T2, rat native DAT (Rattus norvegicus, UniProt P23977); test: [3H]-DA uptake inhibition, rat striatal synaptosomes; type: biochemical; conditions: mean
T2 construct: human recombinant and rat native monoamine transporters; from tissue; host or cells: rat striatum (synaptosomes)
Text: as §1, §2

[4] = target: T3, human recombinant SERT (Homo sapiens, UniProt P31645); test: Radioligand binding, [3H]-citalopram, HEK293-hSERT membranes; conditions: mean (95% confidence intervals)
T3 construct: expressed in transfected cells; host or cells: HEK293
Text: as §1, §2

[5] = target: T4, human recombinant NET (Homo sapiens, UniProt P23975); test: Radioligand binding, [3H]-nisoxetine, HEK293-hNET membranes; conditions: mean (95% confidence intervals)
T4 construct: expressed in transfected cells; host or cells: HEK293
Text: as §1, §2

[6] = target: T5, rat native SERT (Rattus norvegicus, UniProt P31652); test: Radioligand binding, [3H]-citalopram, rat cortical membranes; conditions: mean (95% confidence intervals)
T5 construct: human recombinant and rat native monoamine transporters; from tissue; host or cells: rat cerebral cortex (membranes; synaptosomes)
Text: as §1, §2

[7] = human, cited from earlier work
[8] = target: T6, cytochrome P450 1A2 (CYP1A2) (Homo sapiens, UniProt P05177); conditions: healthy subjects, cited from earlier work
T6 construct: from tissue; host or cells: in vivo, healthy human subjects (as reported in Kanodia et al. 2021)

[9] = tested on: healthy subjects; conditions: single dose up to 50 mg and multiple doses up to 20 mg once per day; cited from earlier work
[10] = tested on: subjects with symptomatic nOH; conditions: cited from earlier work

T6 sequence (P05177 whole entry): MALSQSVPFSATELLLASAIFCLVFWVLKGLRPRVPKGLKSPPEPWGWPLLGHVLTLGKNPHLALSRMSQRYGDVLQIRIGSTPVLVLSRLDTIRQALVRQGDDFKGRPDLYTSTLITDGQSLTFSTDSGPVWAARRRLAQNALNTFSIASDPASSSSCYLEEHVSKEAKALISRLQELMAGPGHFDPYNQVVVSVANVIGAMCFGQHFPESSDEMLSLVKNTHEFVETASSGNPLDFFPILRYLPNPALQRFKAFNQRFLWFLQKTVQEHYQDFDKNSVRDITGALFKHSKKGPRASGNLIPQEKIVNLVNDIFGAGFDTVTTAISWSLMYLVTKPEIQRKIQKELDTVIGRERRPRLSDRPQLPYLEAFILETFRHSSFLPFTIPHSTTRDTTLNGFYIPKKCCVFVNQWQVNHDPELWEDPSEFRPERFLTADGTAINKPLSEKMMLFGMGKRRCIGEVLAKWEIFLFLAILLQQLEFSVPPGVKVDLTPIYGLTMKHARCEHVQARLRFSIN
T5 sequence (P31652 whole entry): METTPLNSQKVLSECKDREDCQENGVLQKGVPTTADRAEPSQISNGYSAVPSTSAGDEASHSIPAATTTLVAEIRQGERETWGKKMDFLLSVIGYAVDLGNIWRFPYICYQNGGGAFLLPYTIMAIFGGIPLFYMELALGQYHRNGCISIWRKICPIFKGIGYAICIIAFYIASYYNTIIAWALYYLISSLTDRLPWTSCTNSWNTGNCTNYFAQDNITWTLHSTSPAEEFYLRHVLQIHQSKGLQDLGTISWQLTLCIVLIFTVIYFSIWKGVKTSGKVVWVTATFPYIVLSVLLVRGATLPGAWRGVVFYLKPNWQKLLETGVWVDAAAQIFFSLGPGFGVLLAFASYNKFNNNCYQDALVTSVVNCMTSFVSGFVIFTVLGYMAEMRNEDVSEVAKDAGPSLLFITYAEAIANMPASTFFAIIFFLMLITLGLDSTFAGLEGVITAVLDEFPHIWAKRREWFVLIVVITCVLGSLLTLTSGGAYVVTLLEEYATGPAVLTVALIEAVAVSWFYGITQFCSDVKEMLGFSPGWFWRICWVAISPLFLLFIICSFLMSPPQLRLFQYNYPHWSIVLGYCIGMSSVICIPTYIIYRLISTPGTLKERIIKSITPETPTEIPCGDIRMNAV
T4 sequence (P23975 whole entry): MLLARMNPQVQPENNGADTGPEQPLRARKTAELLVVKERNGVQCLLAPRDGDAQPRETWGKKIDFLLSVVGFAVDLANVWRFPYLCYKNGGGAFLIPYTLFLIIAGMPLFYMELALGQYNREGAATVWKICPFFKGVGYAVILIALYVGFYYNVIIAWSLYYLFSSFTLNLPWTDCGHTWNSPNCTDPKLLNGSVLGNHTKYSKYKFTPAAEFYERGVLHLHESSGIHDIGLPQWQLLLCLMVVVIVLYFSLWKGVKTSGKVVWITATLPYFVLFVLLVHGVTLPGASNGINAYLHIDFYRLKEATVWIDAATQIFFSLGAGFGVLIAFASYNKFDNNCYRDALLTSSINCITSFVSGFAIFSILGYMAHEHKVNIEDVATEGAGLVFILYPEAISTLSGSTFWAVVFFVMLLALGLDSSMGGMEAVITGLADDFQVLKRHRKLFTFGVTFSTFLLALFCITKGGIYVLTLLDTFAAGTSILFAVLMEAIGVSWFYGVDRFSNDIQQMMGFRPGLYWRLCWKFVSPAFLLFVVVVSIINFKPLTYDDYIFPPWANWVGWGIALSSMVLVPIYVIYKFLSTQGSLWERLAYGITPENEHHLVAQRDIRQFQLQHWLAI
T3 sequence (P31645 whole entry): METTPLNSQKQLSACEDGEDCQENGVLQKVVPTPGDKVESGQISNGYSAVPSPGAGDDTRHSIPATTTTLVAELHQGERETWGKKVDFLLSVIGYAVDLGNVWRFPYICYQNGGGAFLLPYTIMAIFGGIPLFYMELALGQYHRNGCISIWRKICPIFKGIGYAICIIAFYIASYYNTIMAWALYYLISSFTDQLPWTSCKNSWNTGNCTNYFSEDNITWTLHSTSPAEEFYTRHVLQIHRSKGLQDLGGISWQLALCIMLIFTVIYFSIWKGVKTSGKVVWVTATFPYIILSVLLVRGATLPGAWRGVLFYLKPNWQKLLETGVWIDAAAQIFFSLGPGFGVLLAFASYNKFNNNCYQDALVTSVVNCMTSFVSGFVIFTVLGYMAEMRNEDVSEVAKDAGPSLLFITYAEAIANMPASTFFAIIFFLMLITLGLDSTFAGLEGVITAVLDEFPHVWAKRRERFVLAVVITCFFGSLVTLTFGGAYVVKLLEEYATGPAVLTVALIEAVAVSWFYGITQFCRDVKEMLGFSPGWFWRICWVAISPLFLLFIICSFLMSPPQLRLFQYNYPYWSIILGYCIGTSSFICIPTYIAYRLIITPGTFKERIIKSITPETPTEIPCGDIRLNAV
T1 sequence (Q01959 whole entry): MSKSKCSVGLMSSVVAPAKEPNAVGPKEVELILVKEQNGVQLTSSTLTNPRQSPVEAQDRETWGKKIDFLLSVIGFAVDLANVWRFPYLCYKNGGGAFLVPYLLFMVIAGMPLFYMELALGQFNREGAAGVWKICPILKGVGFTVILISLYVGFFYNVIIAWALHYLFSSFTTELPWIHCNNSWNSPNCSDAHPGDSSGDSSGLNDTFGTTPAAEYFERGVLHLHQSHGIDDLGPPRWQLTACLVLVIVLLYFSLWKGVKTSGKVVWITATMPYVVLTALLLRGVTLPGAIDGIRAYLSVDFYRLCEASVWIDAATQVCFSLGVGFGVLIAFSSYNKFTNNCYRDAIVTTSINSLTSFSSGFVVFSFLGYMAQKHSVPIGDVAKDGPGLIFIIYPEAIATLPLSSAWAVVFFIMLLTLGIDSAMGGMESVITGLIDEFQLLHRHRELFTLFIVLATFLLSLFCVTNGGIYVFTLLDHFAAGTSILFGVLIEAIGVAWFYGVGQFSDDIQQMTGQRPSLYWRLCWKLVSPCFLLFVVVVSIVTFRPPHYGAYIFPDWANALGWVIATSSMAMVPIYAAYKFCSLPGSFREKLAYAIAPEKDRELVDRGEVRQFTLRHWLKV
T2 sequence (P23977 whole entry): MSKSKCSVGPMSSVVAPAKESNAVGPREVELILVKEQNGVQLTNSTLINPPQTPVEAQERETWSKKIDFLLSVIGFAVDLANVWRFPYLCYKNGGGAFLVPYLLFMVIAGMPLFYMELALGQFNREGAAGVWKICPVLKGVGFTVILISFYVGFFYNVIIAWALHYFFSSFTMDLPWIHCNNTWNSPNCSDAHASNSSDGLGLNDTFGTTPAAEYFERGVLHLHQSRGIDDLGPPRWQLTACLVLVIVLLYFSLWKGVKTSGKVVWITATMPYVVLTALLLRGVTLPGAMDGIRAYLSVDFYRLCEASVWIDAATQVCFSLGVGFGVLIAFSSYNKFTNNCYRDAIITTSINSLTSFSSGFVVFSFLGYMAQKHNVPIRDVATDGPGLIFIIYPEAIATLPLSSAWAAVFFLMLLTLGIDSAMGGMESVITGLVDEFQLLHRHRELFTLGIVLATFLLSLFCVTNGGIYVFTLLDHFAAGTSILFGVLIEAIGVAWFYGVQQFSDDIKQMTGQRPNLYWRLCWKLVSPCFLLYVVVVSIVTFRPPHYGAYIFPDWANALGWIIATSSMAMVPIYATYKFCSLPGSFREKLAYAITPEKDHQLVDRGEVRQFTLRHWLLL

With `Fc1cc(F)c(OCc2ccccc2C2CCNCC2)c(F)c1` [Ampreloxetine, 4-[2-(2,4,6-trifluorophenoxymethyl)phenyl]piperidine] the “Neurotransmitter Uptake Inhibition: pIC50, DAT” value [1] was 6.8, the “Apparent functional selectivity for NET over SERT” value [2] was 10 fold and the “Neurotransmitter Uptake Inhibition: pIC50, DAT” value [3] was 6.9. The “Transporter Binding: pKi, SERT” value [4] was 8.5 (8.5, 8.6), the “Transporter Binding: pKi, NET” value [5] was 8.8 (8.8, 8.9) and the “Transporter Binding: pKi, SERT” value [6] was 8.5 (8.3, 8.6). The “Dose proportionality of Cmax and AUC” value ([7]; administered doses) was “linear with near dose proportional exposure”, the “Time to steady state” value ([7]; once daily dosing) was ≤ 6 days and the “Enzyme responsible for metabolism” value ([8]; CYP1A2) was “primary enzyme responsible for ampreloxetine metabolism”. For the same compound, the “Fraction eliminated through metabolism” value [8] was > 90%, the Safety and tolerability [9] was “generally well tolerated” and the “Improvement in standing time” value ([10]; Part A, 4 hours after dosing at 10 mg) was “approximately 100 seconds”. The “Dose response of single ascending doses” value ([10]; Part A, up to 20 mg) was “no dose response was observed”, the “SBP following 3 minutes of standing” value ([10]; Part B, up to 15 mg, 4- and 7-hours post-dose) was “sustained increase in SBP over baseline” and the “Improvement from baseline of at least 2 points in OHSA #1 score” value ([10]; Part C, open-label 3-20 mg once-daily up to 20 weeks) was “A large proportion of subjects met this endpoint”.

Source: patent US20230372318A1, “METHODS FOR TREATING A SUBJECT HAVING MULTIPLE SYSTEM ATROPHY” (Theravance Biopharma R&D IP, LLC, priority 2022, published 2023)
